From ChEMBL document CHEMBL1201862, “PubChem BioAssay data set” (2004)
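Tested at 5 concentrations; 48 h exposure; 96-well plates; endpoints linearly interpolated, else capped at highest concentration. Abbreviation: GI50, concentration required for 50% inhibition of growth.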 Active and inactive are the calls of the source. No stated cut-off is given here; in the data, active = GI50 up to about 1.1 µM and inactive = higher.

Experiments:
Test in all cases: NCI tumour cell line growth inhibition, 48 h
[1] = tested on: Malme-3M
[2] = tested on: UO-31
[3] = tested on: SK-MEL-2
[4] = tested on: LXFL 529
[5] = tested on: SW-620
[6] = tested on: MOLT-4
[7] = tested on: SF-295
[8] = tested on: NCI-H460
[9] = tested on: HCC 2998
[10] = tested on: COLO 205
[11] = tested on: SK-MEL-28
[12] = tested on: SNB-75
[13] = tested on: RPMI-8226
[14] = tested on: A549
[15] = tested on: EKVX
[16] = tested on: U-251
[17] = tested on: LOX IMVI
[18] = tested on: SNB-19

Measured: GI50

Oc1c(Cl)c2nccnc2c2ccccc12
inactive: [1] > 100 µM | [2] > 100 µM | [3] > 100 µM | [4] > 100 µM | [5] > 100 µM | [6] > 100 µM | [7] > 100 µM | [8] > 100 µM | [9] > 100 µM | [10] > 100 µM | [11] > 100 µM | [12] > 100 µM | [13] > 100 µM | [14] > 100 µM | [15] > 100 µM | [16] > 100 µM

COc1ccc2nc3cc(Cl)ccc3c(SCC(=O)Nc3ccccc3-c3ccccc3NC(=O)CSc3c4ccc(Cl)cc4nc4ccc(OC)cc34)c2c1
inactive: [1] > 100 µM | [2] > 100 µM | [3] > 100 µM | [4] > 100 µM | [5] > 100 µM | [6] > 100 µM | [7] > 100 µM | [8] > 100 µM | [9] > 100 µM | [10] > 100 µM | [17] > 100 µM | [11] > 100 µM | [12] > 100 µM | [18] > 100 µM | [13] > 100 µM | [14] > 100 µM | [15] > 100 µM | [16] > 100 µM

COC(=O)CCC1=NOC(CC2CC(CCC(=O)OC)=NO2)C1 (stereo unspecified)
inactive: [1] > 100 µM | [2] > 100 µM | [3] > 100 µM | [4] > 100 µM | [5] > 100 µM | [6] > 100 µM | [7] > 100 µM | [8] > 100 µM | [9] > 100 µM | [10] > 100 µM | [17] > 100 µM | [12] > 100 µM | [18] > 100 µM | [13] > 100 µM | [14] > 100 µM | [15] > 100 µM | [16] > 100 µM

O=C(Cc1ccccc1)NN1C(=O)C(Cl)C1c1ccccc1O (stereo unspecified)
inactive: [1] 19.5 µM | [2] 4.54 µM | [3] 17.8 µM | [4] 24.4 µM | [5] 15.8 µM | [6] 3.22 µM | [7] 15.4 µM | [8] 4.62 µM | [9] 20.3 µM | [10] 16.4 µM | [17] 12.1 µM | [11] 23.5 µM | [12] 34.8 µM | [18] 16.9 µM | [13] 9.84 µM | [14] 21.4 µM | [15] 4.07 µM | [16] 12.8 µM

C=C(C[N+](C)(C)C)N/N=C/c1oc(-c2ccc(OC)c(OC)c2)c(-c2ccc(OC)c(OC)c2)c1[N+](=O)[O-]
inactive: [1] > 10 µM | [2] 18.9 µM | [3] 16.7 µM | [4] 22.9 µM | [5] 18.7 µM | [6] 22.4 µM | [7] 17.5 µM | [8] 18.5 µM | [9] 19.3 µM | [10] 16.4 µM | [17] 15 µM | [11] 18.3 µM | [12] 19.4 µM | [18] 34.4 µM | [13] 14.6 µM | [14] 38.5 µM | [15] > 100 µM | [16] 19.5 µM

CNC1=Nc2ccc(Cl)cc2C(c2ccccc2)=NN1C
inactive: [1] 42.9 µM | [2] 35.5 µM | [3] 73.5 µM | [4] > 100 µM | [5] > 100 µM | [6] 36.2 µM | [7] 84.7 µM | [8] > 100 µM | [9] 24.9 µM | [10] > 100 µM | [17] 60.4 µM | [11] > 100 µM | [12] 23.4 µM | [18] > 100 µM | [13] 31.3 µM | [14] > 100 µM | [15] > 100 µM | [16] > 100 µM

[O-][Cl+3]([O-])([O-])O.c1ccc(/N=c2\snc(-c3ccccc3)s2)cc1
inactive: [1] > 100 µM | [2] > 100 µM | [3] > 100 µM | [4] > 100 µM | [5] > 100 µM | [6] > 100 µM | [8] > 100 µM | [9] > 100 µM | [10] > 100 µM | [11] > 100 µM | [12] > 100 µM | [18] > 100 µM | [13] > 100 µM | [14] > 100 µM | [16] > 100 µM

N#C[C@]12CC3(CC[C@H]1CC1(C2)OCCO1)OCCO3
inactive: [1] > 100 µM | [2] > 100 µM | [3] > 100 µM | [4] > 100 µM | [5] > 100 µM | [6] > 100 µM | [8] > 100 µM | [9] > 100 µM | [10] > 100 µM | [11] > 100 µM | [12] > 100 µM | [18] > 100 µM | [13] > 100 µM | [14] > 100 µM | [16] > 100 µM

Cc1[nH]c2ccccc2c1C(=O)CC1(O)C(=O)Nc2c(Cl)cc(Cl)cc21 (stereo unspecified)
inactive: [1] 18.9 µM | [2] 26.3 µM | [3] 28.6 µM | [4] 16.4 µM | [5] 22.2 µM | [6] 22.1 µM | [7] 19.5 µM | [8] 48.9 µM | [9] 51.6 µM | [10] 30.1 µM | [17] 27 µM | [11] 27 µM | [12] 27.9 µM | [18] 41.3 µM | [13] 25.5 µM | [14] 36.1 µM | [16] 30.1 µM

Cc1ccc(S(=O)(=O)Nc2cccc(C)c2C)cc1
inactive: [1] 96.8 µM | [2] 30.8 µM | [4] 56.2 µM | [5] 86.7 µM | [6] 45.5 µM | [7] 33.7 µM | [8] 46.6 µM | [9] > 100 µM | [10] 59.7 µM | [17] 62.5 µM | [11] 30.4 µM | [12] 22.5 µM | [18] > 100 µM | [13] > 100 µM | [14] 59.6 µM | [15] 73.5 µM | [16] 28.4 µM

O=C(Cc1nc(-c2ccccc2)cc(=O)n1-c1ccccc1Cl)c1ccncc1
inactive: [1] > 100 µM | [2] > 100 µM | [3] > 100 µM | [4] > 100 µM | [5] > 100 µM | [7] > 100 µM | [8] > 100 µM | [9] > 100 µM | [10] > 100 µM | [17] > 100 µM | [11] > 100 µM | [12] 25.2 µM | [18] > 100 µM | [14] > 100 µM | [15] > 100 µM | [16] > 100 µM

Cn1cc(C(=O)C[n+]2ccccc2)c2ccccc21
inactive: [1] 69.7 µM | [2] > 100 µM | [3] > 100 µM | [4] > 10 µM | [5] > 100 µM | [6] 54.7 µM | [7] 38.4 µM | [8] > 100 µM | [9] > 100 µM | [10] 52.2 µM | [17] > 100 µM | [12] 69.2 µM | [18] 52.8 µM | [13] > 100 µM | [14] 50.6 µM | [15] 11.9 µM
